Source: US11952577B2, “Yarrowia lipolytica yeast strains expressing an HMG-CoA reductase having increased activity or expression” (NUCELIS LLC, priority 2009, dated 2024)

Legend:
[1] = tested on: Yarrowia lipolytica strain polg (Yeastern); test: Cultivation in supplemented CYM001 media, lipid and squalene production; format: cell-based; conditions: 30′C, 300 rpm, 120 h
Text: Various Yarrowia lipolylica strains are used for lipid and squalene production including ATCC 20688, ATCC 90811, ATCC 90904, ATCC 90812, ATCC MYA-2613, and Yeastern polg. For example, Yarrowia lipolytica strain polg (Yeastern) was cultivated in high Carbon/Nitrogen ratio media (C/N=420, Li, Y-H., Liu. B., Zhao. Z-B., and Bai, F-W. 2006 “Optimized Culture Medium and Fermentation Conditions for Lipid Production by Rhodosporidium toruloides” Chinese Journal of Biotechnology 22(4): 650-656) (hereinafter “CYM001 Media”) supplemented with 0 to 50 μg/ml terbinafine at 30′C, 300 rpm for 120 h.

[2] = tested on: Yarrowia lipolytica ATCC 90904; test: as above; format: cell-based; conditions: 30′C, 300 rpm, 120 h
Protocol: For example, Yarrowia lipolytica ATCC 90904 was cultivated in high Carbon/Nitrogen ratio media (C/N=420, Li. Y-H., Liu, B., Zhao, Z-B., and Bai. F-W. 2006 “Optimized Culture Medium and Fermentation Conditions for Lipid Production by Rhodosporidium toruloides” Chinese Journal of Biotechnology 22(4): 650-656) (hereinafter “CYM001 Media”) supplemented with 0 to 50 μg/ml terbinafine at 30′C, 300 rpm for 120 h.
In another example, Yarrowia lipolytica ATCC 90904 was cultivated in CYM001 media supplemented with 0 to 50 μg/ml Oleic acid at 30′C, 300 rpm for 120 h.
In a further example, Yarrowia lipolytica ATCC 90904 was cultivated in CYM001 media supplemented with 0 to 200 μM clethodim at 30′C, 300 rpm for 120 h.

`CN(C/C=C/C#CC(C)(C)C)Cc1cccc2ccccc12` [terbinafine] was tested, and the “total lipid as squalene” value ([1]; 12.5 μg/ml or higher, CYM001 media) was “up to 38%”, the “total lipid/Cell Dry weight” value ([1]; terbinafine-supplemented CYM001 media) was “up to 51%” and the “total lipid as squalene” value ([2]; 12.5 μg/ml or higher) was “up to 18.5%”.

`CCSC(C)CC1CC(=O)C(/C(CC)=N/OC/C=C/Cl)=C(O)C1` (centres unmarked) [clethodim] was tested, and the “increase in the yield (mg) of squalene per 60-ml flask” value ([2]; 200 μM) was 60 fold.

In the case of `CCCCCCCC/C=C\CCCCCCCC(=O)O` [Oleic acid], the “improvement of lipid accumulation in lipid/CDW over no supplementation” value ([2]; 10 μl/ml) is reported as 10 fold.
